Test results reported in US7169580B1, “Protein having PGE2 synthase activity and use thereof” (Chugai Seiyaku Kabushiki Kaisha, priority 2000, dated 2007).
Substitutions are numbered along the chain they refer to. Entries after “also recorded” stand apart in the source; their conditions may differ.

How the values were obtained:
Format in all cases: biochemical
[1] = target: T1, PGES activity of peak C (PGES-1) (Rattus norvegicus, UniProt P83868); assay: PGES activity of Superdex 200 gel filtration fractions of rat brain soluble fraction; settings: Superdex 200 peak C (approximately 50 kDa), in contrast to peaks A and B
T1 construct: from tissue; host or cells: brain of LPS-administered rat: 100,000 x g supernatant, 60-80% ammonium sulfate, DEAE-Sephacel, Superdex 200 peak C
T1 sequence (P83868 1-160): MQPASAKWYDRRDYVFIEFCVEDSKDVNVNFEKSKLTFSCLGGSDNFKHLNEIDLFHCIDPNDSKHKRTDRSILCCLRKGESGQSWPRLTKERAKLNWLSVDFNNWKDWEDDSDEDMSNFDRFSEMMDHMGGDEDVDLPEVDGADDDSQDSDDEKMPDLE
Protocol: (§1) PGES activity was measured as follows: Cells suspended in 20 mmol/L Tris-hydrochloride buffer (pH 7.4) were homogenized using ultrasonic homogenizer (Branson Sonifier Model 200) and centrifuged at 800×g for 5 minutes at 4° C., and the supernatant was used as the cell lysate in the following. 0.5 μg of PGH2 was added to the lysate, which was suspended with 0.1 mol/L Tris-hydrochloride buffer (pH 8.0) containing 1 mmol/L GSH, with a protein content of 10 μg, was incubated for 30 seconds at 24° C., and then 8 mmol/L FeCl2 was added to terminate the reaction. The amount of produced PGE2 was measured by Enzyme Immunoassay Kit (Cayman), and PGES activity was expressed as the amount of PGE2 produced per 30 seconds, per 10 μg of protein (ng/30 sec/10 μg protein).
150 μg/kg body LPS (Salmonella minnesota: Re595) was administered intravenously from rat tail. Rat brain was removed 2 days after the injection and was homogenized using Potter's homogenizer at 4° C. […]
A protein of a molecular weight of about 27 kDa, corresponding with the PGES activity (PGES-1), was obtained by SDS electrophoretic analysis of peak C (FIG. 3, bottom). The production of this protein was predicted to elevate in response to inflammatory stimulus due to the fact that large amount of the protein was detected in LPS-administered rats than in normal rats.

PGES-2 = target: T2, PGES-2 (Homo sapiens, UniProt O14684); assay: PGES activity in HEK293 cells transfected with PGES-2; settings: HEK293 cells transfected with PGES-2, coexistence of CDNB
T2 construct: expressed in transfected cells; host or cells: HEK293
T2 sequence (O14684 1-152): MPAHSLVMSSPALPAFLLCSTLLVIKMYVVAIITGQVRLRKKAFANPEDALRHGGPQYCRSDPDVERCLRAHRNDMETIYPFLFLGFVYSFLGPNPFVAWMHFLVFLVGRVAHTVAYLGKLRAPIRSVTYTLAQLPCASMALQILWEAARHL
Protocol: as §1

PGES-1 = target: T3, PGES-1 (Homo sapiens, UniProt Q15185); assay: PGES activity in lysate of HEK293 cells transfected with PGES-1 cDNA; settings: lysate of HEK293 cells transfected with PGES-1, coexistence of CDNB
T3 construct: the cDNA of full-length human progesterone receptor complex component protein p23 was isolated by RT-PCR; expressed in transfected cells; host or cells: HEK293
T3 sequence (Q15185 1-160): T1 sequence (P83868 1-160) with D128N, H129N
Protocol: as §1
Peptide mapping of PGES-1 protein was carried out using V8 protease, and 3 fragments among the peptide fragments were analyzed by N-terminal amino acid sequence analyzer to determine the partial amino acid sequence thereof. According to GenBank database search with one of these amino acid sequences, the sequence completely matched to a portion of a known sequence reported as the human progesterone receptor complex component protein p23 (Johnson, J L et al., Mol. Cell. Biol., 14:1956–63, 1994). […] Thus, the cDNA was confirmed to encode the desired PGES.

## O=[N+]([O-])c1ccc(Cl)c([N+](=O)[O-])c1 [CDNB, 1-chloro-2,4-dinitrobenzene]
[1]
  effect of CDNB on PGES activity of peak C: strongly inhibited
PGES-2
  effect of CDNB on GSH-dependent PGES activity of recombinant PGES-2: CDNB insensitive; also recorded: not suppressed
PGES-1
  effect of CDNB on GSH-dependent PGES activity of recombinant PGES-1: CDNB sensitive; also recorded: suppressed
